Reference: article PMC9267128, “New 2-[(4-Amino-6-N-substituted-1,3,5-triazin-2-yl)methylthio]-N-(imidazolidin-2-ylidene)-4-chloro-5-methylbenzenesulfonamide Derivatives, Design, Synthesis and Anticancer Evaluation” (International Journal of Molecular Sciences, 2022)

What was measured:
HeLa (cervical cancer) = assay: MTT cell viability assay, HeLa; type: cell-based, human; conditions: for IC50: Homo sapiens, HeLa, MTT assay, 72 h of incubation; for Selectivity Index (SI) HeLa: IC50 value toward HaCaT cells/IC50 value toward HeLa
Protocol: (§1) Analysis was performed using an MTT assay after 72 h of incubation.
(§2) All chemicals, if not stated otherwise, were obtained from Sigma–Aldrich (St. Louis, MO, USA). The HCT-116 cell line was purchased from ATCC (ATCC-No: CCL-247), while the MCF-7, HeLa and HaCaT cell lines were purchased from Cell Lines Services (Eppelheim, Germany). Cells were cultured in Dulbecco’s modified Eagle’s medium (DMEM) supplemented with 10% fetal bovine serum, 2 mM glutamine, 100 units/mL penicillin and 100 µg/mL streptomycin. Cultures were maintained in a humidified atmosphere with 5% carbon dioxide at 37 °C in an incubator (Heraceus, HeraCell).
(§3) Cell viability was examined using the MTT [3-(4,5-dimethylthiazol-2-yl)-2,5-diphenyltetrazolium bromide] assay. Cells were seeded in 96-well plates at a density of 3 × 10^3 cells/well and treated for 72 h with the tested compounds in the concentration range of 1–100 µM. Then, MTT (0.5 mg/mL) was added to the medium and cells were further incubated for 2 h at 37 °C. In the next stage, cells were lysed with DMSO and the absorbance of the formazan solution was measured at 550 nm with a plate reader (1420 multilabel counter, Victor, Jügesheim, Germany). The experiment was performed in triplicate. Values are expressed as the mean ± SD of at least three independent experiments.

MCF-7 (breast cancer) = assay: MTT cell viability assay, MCF-7; type: cell-based, human; conditions: for IC50: Homo sapiens, MCF7, 72 h, MTT assay, 72 h of incubation; for Selectivity Index (SI) MCF-7: IC50 value toward HaCaT cells/IC50 value toward MCF-7
Protocol: (§4) Compounds 20–162 were evaluated in vitro for their effects on the viability of three cancer cell lines: HCT-116 (colon cancer), MCF-7 (breast cancer) and HeLa (cervical cancer), as well as the non-cancerous keratinocyte cell line (HaCaT). […] Analysis was performed using an MTT assay after 72 h of incubation.
as §2
as §3, with “experiments. Cisplatin was used as a positive control.” for “experiments.”

HCT-116 (colon cancer) = assay: MTT cell viability assay, HCT-116; type: cell-based, human; conditions: for IC50: MTT assay, 72 h of incubation; for Selectivity Index (SI) HCT-116: IC50 value toward HaCaT cells/IC50 value toward HCT-116
Protocol: as §1, §2, §3

[1] = system: HaCaT (human keratinocyte cell line); assay: MTT cell viability assay, non-cancerous HaCaT; type: cell-based; conditions: Homo sapiens, HaCaT, 72 h, 72 h of incubation, non-cancerous keratinocytes
Protocol: as §4, §2
as §3, with “experiments. Cisplatin was used as a positive control.” for “experiments.”

IC50 (HeLa (cervical cancer))	IC50 (MCF-7 (breast cancer))	IC50 (HCT-116 (colon cancer); Homo sapiens, HCT-116, 72 h)	IC50 (HCT-116 (colon cancer))	Compound	IC50 [1]	Selectivity Index (SI) HeLa (HeLa (cervical cancer))	Selectivity Index (SI) MCF-7 (MCF-7 (breast cancer))	Selectivity Index (SI) HCT-116 (HCT-116 (colon cancer))
10 ± 0.1 µM	6 ± 0.1 µM	5 ± 0.1 µM		Cc1cc(S(=O)(=O)N=C2NCCN2Cc2cc(C(F)(F)F)cc(C(F)(F)F)c2)c(SCc2nc(N)nc(N3CCN(c4ccc(Cl)c(Cl)c4)CC3)n2)cc1Cl [Compound 155]	19 ± 1 µM			
18 ± 1 µM	11 ± 0.5 µM	11.5 ± 0.6 µM		Cc1cc(S(=O)(=O)N=C2NCCN2Cc2cc(C(F)(F)F)cc(C(F)(F)F)c2)c(SCc2nc(N)nc(N(C)c3ccc(Cl)cc3)n2)cc1Cl [Compound 149]	33 ± 1 µM			
15 ± 1 µM	12.5 ± 0.6 µM	11.5 ± 0.5 µM		Cc1cc(S(=O)(=O)N=C2NCCN2Cc2cc(C(F)(F)F)cc(C(F)(F)F)c2)c(SCc2nc(N)nc(Nc3ccccc3)n2)cc1Cl [Compound 146]	32 ± 1 µM			
6 ± 0.3 µM	8 ± 0.4 µM	5 ± 0.3 µM		Cc1cc(S(=O)(=O)N=C2NCCCN2Cc2ccc(C(F)(F)F)cc2)c(SCc2nc(N)nc(N3CCCc4ccccc43)n2)cc1Cl [Compound 158]	17 ± 1 µM			
61 ± 2 µM	64 ± 2 µM	37 ± 0.5 µM		COc1ccc(Nc2nc(N)nc(CSc3cc(Cl)c(C)cc3S(=O)(=O)N=C3NCCN3Cc3ccccc3)n2)cc1 [Compound 52]	92 ± 3 µM			
12 ± 0.2 µM	17 ± 1 µM	16 ± 0.5 µM		Cc1cc(S(=O)(=O)N=C2NCCN2Cc2cccc(C(F)(F)F)c2)c(SCc2nc(N)nc(N3CCN(Cc4ccccc4)CC3)n2)cc1Cl [Compound 117]	36 ± 2 µM			
34 ± 2 µM	13 ± 0.4 µM	20 ± 1 µM		Cc1cc(S(=O)(=O)N=C2NCCN2Cc2ccc(F)cc2)c(SCc2nc(N)nc(N3CCN(C)CC3)n2)cc1Cl [Compound 91]	54 ± 2 µM			
37 ± 1 µM	54 ± 1 µM	22 ± 1 µM		Cc1cc(S(=O)(=O)N=C2NCCN2Cc2ccccc2)c(SCc2nc(N)nc(N3CCN(C)CC3)n2)cc1Cl [Compound 56]	58 ± 2 µM			
13 ± 0.5 µM	6 ± 0.3 µM	5 ± 0.1 µM		Cc1cc(S(=O)(=O)N=C2NCCN2Cc2cc(C(F)(F)F)cc(C(F)(F)F)c2)c(SCc2nc(N)nc(N3CCC(Cc4ccccc4)CC3)n2)cc1Cl [Compound 157]	23 ± 1 µM	1.7	3.8	4.6
12 ± 3 µM	14 ± 1 µM	10 ± 0.5 µM		Cc1cc(S(=O)(=O)N=C2NCCN2Cc2ccc(F)cc2)c(SCc2nc(N)nc(N3CCc4ccccc43)n2)cc1Cl [Compound 83]	32 ± 1 µM			
15 ± 1 µM	14 ± 0.5 µM	11 ± 0.1 µM		Cc1cc(S(=O)(=O)N=C2NCCN2Cc2ccc(C(F)(F)F)cc2)c(SCc2nc(N)nc(N(C)c3ccc(Cl)cc3)n2)cc1Cl [Compound 129]	31 ± 1 µM			
24 ± 2 µM	12 ± 0.5 µM	18 ± 1 µM		Cc1cc(S(=O)(=O)N=C2NCCN2)c(SCc2nc(N)nc(N3CCN(c4ccc(C(F)(F)F)cc4)CC3)n2)cc1Cl [Compound 34]	41 ± 1 µM			
12.5 ± 0.5 µM	6 ± 0.2 µM	< 6 µM	5.5 ± 0.3 µM	Cc1cc(S(=O)(=O)N=C2NCCCN2Cc2ccc(C(F)(F)F)cc2)c(SCc2nc(N)nc(N3CCN(Cc4ccccc4)CC3)n2)cc1Cl [Compound 162]	25 ± 0.7 µM	2.0	4.1	4.5
7 ± 0.4 µM	6 ± 0.3 µM	4.6 ± 0.1 µM		Cc1cc(S(=O)(=O)N=C2NCCN2Cc2ccc(C(F)(F)F)cc2)c(SCc2nc(N)nc(N3CC=C(c4ccc(F)cc4)CC3)n2)cc1Cl [Compound 143]	19 ± 1 µM			

More lines, now with the values behind:

Compound	IC50 (HeLa (cervical cancer))	IC50 (MCF-7 (breast cancer))	IC50 (HCT-116 (colon cancer); Homo sapiens, HCT-116, 72 h)	IC50 (HCT-116 (colon cancer))	IC50 [1]	Selectivity Index (SI) HeLa (HeLa (cervical cancer))	Selectivity Index (SI) MCF-7 (MCF-7 (breast cancer))	Selectivity Index (SI) HCT-116 (HCT-116 (colon cancer))
Cc1cc(S(=O)(=O)N=C2NCCN2Cc2cccc3ccccc23)c(SCc2nc(N)nc(Nc3ccccc3)n2)cc1Cl [Compound 75]	77 ± 5 µM	8 ± 0.5 µM	30 ± 2 µM		110 ± 5 µM			
COc1ccc(N2CCN(c3nc(N)nc(CSc4cc(Cl)c(C)cc4S(=O)(=O)N=C4NCCN4Cc4ccc(C(F)(F)F)cc4)n3)CC2)cc1 [Compound 139]	12 ± 1 µM	13 ± 1 µM	6 ± 0.1 µM		24 ± 1 µM			
Cc1cc(S(=O)(=O)N=C2NCCN2Cc2ccc(F)cc2)c(SCc2nc(N)nc(N3CCN(c4ccc(Cl)c(Cl)c4)CC3)n2)cc1Cl [Compound 98]	8 ± 0.4 µM	7 ± 0.4 µM	7 ± 0.1 µM		18 ± 1 µM			
Cc1cc(S(=O)(=O)N=C2NCCN2Cc2ccccc2)c(SCc2nc(N)nc(N3CCN(c4ccc(F)c(Cl)c4)CC3)n2)cc1Cl [Compound 65]	11 ± 0.3 µM	11 ± 0.5 µM	7 ± 0.2 µM		23 ± 1 µM			
Cc1cc(S(=O)(=O)N=C2NCCN2)c(SCc2nc(N)nc(N3CCN(c4cccc(Cl)c4)CC3)n2)cc1Cl [Compound 37]	24 ± 1 µM	19 ± 1 µM	18 ± 0.5 µM		37 ± 2 µM			
Cc1cc(S(=O)(=O)N=C2NCCN2Cc2ccc(C(F)(F)F)cc2)c(SCc2nc(N)nc(N3CCOCC3)n2)cc1Cl [Compound 119]	18 ± 1 µM	13.5 ± 1 µM	13 ± 0.4 µM		41 ± 2 µM			
Cc1cc(S(=O)(=O)N=C2NCCN2Cc2ccc(Br)cc2)c(SCc2nc(N)nc(N3CCN(c4ccc(Cl)cc4)CC3)n2)cc1Cl [Compound 109]	36 ± 2 µM	22 ± 0.5 µM	23 ± 1 µM		55 ± 2 µM			
Cc1cc(S(=O)(=O)N=C2NCCN2Cc2ccc(Br)cc2)c(SCc2nc(N)nc(N(C)c3ccc(Cl)cc3)n2)cc1Cl [Compound 105]	17 ± 0.5 µM	10 ± 0.2 µM	13 ± 0.8 µM		35 ± 2 µM			
Cc1cc(S(=O)(=O)N=C2NCCN2Cc2ccc(F)cc2)c(SCc2nc(N)nc(N3CCN(c4ccccc4F)CC3)n2)cc1Cl [Compound 94]	12 ± 1 µM	14 ± 0.5 µM	9 ± 0.2 µM		25 ± 1 µM			
Cc1cc(S(=O)(=O)N=C2NCCN2Cc2ccc(F)cc2)c(SCc2nc(N)nc(N(C)c3ccccc3)n2)cc1Cl [Compound 89]	17 ± 0.6 µM	18 ± 1 µM	14 ± 0.7 µM		31 ± 1 µM			
Cc1cc(S(=O)(=O)N=C2NCCN2Cc2cccc3ccccc23)c(SCc2nc(N)nc(N3CCN(c4ccccc4)CC3)n2)cc1Cl [Compound 77]	110 ± 5 µM	29 ± 1 µM	40 ± 1 µM		220 ± 11 µM			
Cc1cc(S(=O)(=O)N=C2NCCN2Cc2cc(C(F)(F)F)cc(C(F)(F)F)c2)c(SCc2nc(N)nc(NCc3ccccc3)n2)cc1Cl [Compound 148]	15 ± 1 µM	8.5 ± 0.5 µM	9.5 ± 0.2 µM		29 ± 1 µM			
Cc1cc(S(=O)(=O)N=C2NCCN2Cc2cccc(C(F)(F)F)c2)c(SCc2nc(N)nc(N3CCN(c4ccc(C(F)(F)F)cc4)CC3)n2)cc1Cl [Compound 114]	12 ± 0.3 µM	6.5 ± 0.3 µM	5 ± 0.2 µM		27 ± 1 µM	2.2	4.1	5.4
Cc1cc(S(=O)(=O)N=C2NCCN2Cc2ccc(C(F)(F)F)cc2)c(SCc2nc(N)nc(Nc3ccc(F)cc3)n2)cc1Cl [Compound 123]	18 ± 1 µM	21 ± 0.6 µM	12 ± 0.5 µM		30 ± 1 µM			
Cc1cc(S(=O)(=O)N=C2NCCN2Cc2ccccc2)c(SCc2nc(N)nc(N3CCN(Cc4ccccc4)CC3)n2)cc1Cl [Compound 68]	14 ± 0.5 µM	16 ± 0.5 µM	16 ± 0.5 µM		32 ± 2 µM			
Cc1cc(S(=O)(=O)N=C2NCCN2)c(SCc2nc(N)nc(N3CCCc4ccccc43)n2)cc1Cl [Compound 24]	22 ± 0.2 µM	27 ± 0.3 µM	20 ± 0.4 µM		41 ± 1 µM			
Cc1cc(S(=O)(=O)N=C2NCCN2Cc2ccccc2)c(SCc2nc(N)nc(N3CC=C(c4ccc(F)cc4)CC3)n2)cc1Cl [Compound 73]	14 ± 0.3 µM	7.5 ± 0.3 µM	< 6 µM	5.2 ± 0.2 µM	29 ± 1 µM	2.0	3.8	5.5
